# Patent US6727237B2, “Inhibitors of bacterial NAD synthetase” (priority 1998, dated 2004)
# Tests used:
# [1] = system: Staphylococcus epidermitis; experiment: Bacterial growth inhibition screen in LB media (absorbance 595 nm), percent inhibition; conditions: S. epidermitis
# [2] = biological target: T1, bacterial NAD synthetase enzyme (Bacillus subtilis, UniProt P08164); experiment: biochemical; format: biochemical
# T1 sequence (P08164 2-272 limits assumed): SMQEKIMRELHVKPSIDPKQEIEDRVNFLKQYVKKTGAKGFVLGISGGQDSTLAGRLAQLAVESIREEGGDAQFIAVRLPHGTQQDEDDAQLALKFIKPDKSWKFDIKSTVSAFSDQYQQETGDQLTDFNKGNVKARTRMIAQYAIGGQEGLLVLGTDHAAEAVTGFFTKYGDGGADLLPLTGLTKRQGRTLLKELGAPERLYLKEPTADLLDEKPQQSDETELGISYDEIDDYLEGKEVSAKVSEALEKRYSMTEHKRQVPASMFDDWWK
# [3] = compound at 0.2 mM (Table 312A)
# [4] = compound at 0.2 mM (Table 312B)
smiles,measurement,setting,value
O=C(OCCCCCCCCc1cc2cc(Oc3ccccc3)ccc2[nH]1)c1ccccc1-c1ccccc1 [Compound 623],% Inhibition,[1]; concentration screened 100 uM,34.17%
CC(C)c1ccc2[nH]c(CCCCCCCOC(=O)c3cccc(N(C)C)c3)cc2c1 [Compound 625],% Inhibition,[1]; concentration screened 10 uM,7.77%
O=C(OCCCCCCCCc1cc2ccc(C(F)(F)F)cc2[nH]1)c1cccnc1 [Compound 683],% Inhibition,[1]; concentration screened 10 uM,9.26%
O=C(OCCCCc1cc2cc(Oc3ccccc3)ccc2[nH]1)c1ccccc1-c1ccccc1 [Compound 621],% Inhibition,[1]; concentration screened 100 uM,11.75%
O=[N+]([O-])c1cc([N+](=O)[O-])c2[nH]c(CCCCC[n+]3cccc4ccccc43)cc2c1 [Compound 416],% Inhibition,[1]; concentration screened 10 uM,2.09%
O=C(OCCCCCCCCc1cc2cc(C(=O)c3ccccc3)ccc2[nH]1)c1ccncc1 [Compound 710],% Inhibition,[1]; concentration screened 10 uM,6.95%
O=C(OCCCCCCCc1cc2cc(C(F)(F)F)ccc2[nH]1)c1ccccc1-c1ccccc1 [Compound 613],% Inhibition,[1]; concentration screened 10 uM,1.36%
CC(C)c1ccc2[nH]c(CCCCCCCCOC(=O)c3ccccc3-c3ccccc3)cc2c1 [Compound 632],% Inhibition,[1]; concentration screened 100 uM,22.42%
O=C(OCCCCc1cc2cc(C(=O)c3ccccc3)ccc2[nH]1)c1cccnc1 [Compound 693],% Inhibition,[1]; concentration screened 10 uM,14.37%
CN(C)c1ccc(C(=O)OCCCCCCCc2cc3cc(C(F)(F)F)ccc3[nH]2)cc1 [Compound 610],% Inhibition,[1]; concentration screened 10 uM,33.51%
CN(C)c1cccc(C(=O)OCCCCc2cc3cc(C(=O)c4ccccc4)ccc3[nH]2)c1 [Compound 642],% Inhibition,[1]; concentration screened 100 uM,8.86%
CC(=O)c1ccc2[nH]c(CCCCOC(=O)C(c3ccccc3)c3ccccc3)cc2c1 [Compound 669],% Inhibition,[1]; concentration screened 100 uM,11.24%
CN(C)c1cccc(C(=O)OCCCCc2cc3cc(Oc4ccccc4)ccc3[nH]2)c1 [Compound 615],% Inhibition,[1]; concentration screened 100 uM,11.81%
CC(=O)c1ccc2[nH]c(CCCCCCCOC(=O)c3cccc(N(C)C)c3)cc2c1 [Compound 634],% Inhibition,[1]; concentration screened 10 uM,10.08%
CC(=O)c1ccc2[nH]c(CCCCOC(=O)c3cccc(N(C)C)c3)cc2c1 [Compound 633],% Inhibition,[1]; concentration screened 100 uM,5.53%
CN(C)c1cccc(C(=O)OCCCCCCCc2cc3cc(C(=O)c4ccccc4)ccc3[nH]2)c1 [Compound 643],% Inhibition,[1]; concentration screened 10 uM,15.46%
CC(C)c1ccc2[nH]c(CCCCCCCOC(=O)C(c3ccccc3)c3ccccc3)cc2c1 [Compound 664],% Inhibition,[1]; concentration screened 10 uM,3.88%
c1ccc(Oc2ccc3[nH]c(CCCCC[n+]4ccccc4)cc3c2)cc1 [Compound 350],% Inhibition,[1]; concentration screened 10 uM,7.59%
C[n+]1cccc(C(=O)OCCCCn2ccc3cc([N+](=O)[O-])ccc32)c1 [Compound 863],% Inhibition,[1]; concentration screened 10 uM,4.72%
CC(=O)c1ccc2[nH]c(CCCCCCCCOC(=O)C(c3ccccc3)c3ccccc3)cc2c1 [Compound 671],% Inhibition,[1]; concentration screened 100 uM,5.72%
O=C(OCCCCCCCc1cc2cc(C(F)(F)F)ccc2[nH]1)c1cccnc1 [Compound 655],% Inhibition,[1]; concentration screened 10 uM,11.51%
CC(C)c1ccc2[nH]c(CCCCCCCCOC(=O)c3cccnc3)cc2c1 [Compound 668],% Inhibition,[1]; concentration screened 10 uM,3.07%
c1ccc2[nH]c(CCCC[n+]3cccc4ccccc43)cc2c1 [Compound 391],% Inhibition,[1]; concentration screened 10 uM,5.29%
O=C(OCCCCCCCc1cc2cc(C(=O)c3ccccc3)ccc2[nH]1)c1cccnc1 [Compound 694],% Inhibition,[1]; concentration screened 10 uM,2.59%
CC(=O)c1ccc2[nH]c(CCCCCCCCOC(=O)c3cccnc3)cc2c1 [Compound 674],% Inhibition,[1]; concentration screened 10 uM,7.70%
O=C(OCCCCCCCCc1cc2cc([N+](=O)[O-])ccc2[nH]1)C(c1ccccc1)c1ccccc1 [Compound 726],% Inhibition,[1]; concentration screened 10 uM,16.76%
COc1ccc2c(ccn2CCCCOC(=O)c2cc3ccccc3[n+](C)c2)c1 [Compound 820],% Inhibition,[1]; concentration screened 10 uM,65.74%
C[n+]1cc(C(=O)OCCCCn2ccc3cc(OCc4ccccc4)ccc32)cc2ccccc21 [Compound 825],% Inhibition,[1]; concentration screened 10 uM,83.13%
O=C(OCCCCc1cc2ccc(C(F)(F)F)cc2[nH]1)c1cccnc1 [Compound 681],% Inhibition,[1]; concentration screened 10 uM,4.22%
O=C(OCCCCc1cc2cc(C(F)(F)F)ccc2[nH]1)C(c1ccccc1)c1ccccc1 [Compound 651],% Inhibition,[1]; concentration screened 100 uM,13.51%
O=C(OCCCCCCCc1cc2cc(Oc3ccccc3)ccc2[nH]1)c1cccnc1 [Compound 661],% Inhibition,[1]; concentration screened 10 uM,39.31%
O=C(OCCCCCCCCc1cc2cc(Oc3ccccc3)ccc2[nH]1)c1ccncc1 [Compound 701],% Inhibition,[1]; concentration screened 10 uM,3.88%
CN(C)c1ccc(C(=O)OCCCCc2cc3cc(C(F)(F)F)ccc3[nH]2)cc1 [Compound 609],% Inhibition,[1]; concentration screened 100 uM,7.35%
CC(C)c1ccc2[nH]c(CCCCCCCCOC(=O)c3ccc(N(C)C)cc3)cc2c1 [Compound 629],% Inhibition,[1]; concentration screened 100 uM,6.66%
C[N+](C)(C)c1cccc(C(=O)OCCCCCCCCc2cc3cc(Oc4ccccc4)ccc3[nH]2)c1 [Compound 873],% Inhibition,[2]; compound at 0.25 mM,98.0%
C[n+]1cccc(C(=O)OCCCOc2ccc(Oc3ccccc3)cc2)c1 [Compound 1070],IC50,[2],36.2 µM
same,inhibition at 200 µM,[2],82%
CC(=O)c1ccc2[nH]c(CCCCCCC[n+]3ccccc3)cc2c1 [Compound 370],% Inhibition,[2]; [3],41.34%
O=C(O)c1ccc2[nH]c(CCCCCCC[n+]3ccc4ccccc4c3)cc2c1 [Compound 604],% Inhibition,[2]; [3],34.10%
CCCCc1ccc2[nH]c(CCCCCCCC[n+]3ccccc3)cc2c1 [Compound 317],% Inhibition,[2]; compound at 0.1 mM (Table 314),25.04%
O=[N+]([O-])c1cc([N+](=O)[O-])c2[nH]c(CCCCC[n+]3ccccc3)cc2c1 [Compound 308],% Inhibition,[2]; [3],33.71%
c1ccc(Oc2ccc3[nH]c(CCCC[n+]4ccccc4)cc3c2)cc1 [Compound 349],IC50,[2],75 µM
same,inhibition at 100 µM,[2],86.6%
NC(=O)c1ccc(OCCCCCCCCOC(=O)c2cccnc2)cc1 [Compound 1014],% Inhibition,[2]; [4],14%
Cc1ccc2[nH]c(CCCCCCCC[n+]3cccc4ccccc43)cc2c1 [Compound 407],% Inhibition,[2]; [3],24.14%
COC(=O)c1cc2ccccc2n1CCCCCCCCOC(=O)c1ccc[n+](C)c1 [Compound 973],IC50,[2],45 µM
same,inhibition at 100 µM,[2],97.8%
C[N+](C)(C)c1ccc(CC(=O)OCCCCCCCCOc2ccc(OC(=O)c3ccccc3)cc2)cc1 [Compound 1082],IC50,[2],50 µM
same,inhibition at 200 µM,[2],81%
COc1ccc2[nH]c(CCC[n+]3ccc4ccccc4c3)cc2c1 [Compound 588],% Inhibition,[2]; [3],2.49%
CC(=O)c1ccc2[nH]c(CCCCCCCCOC(=O)c3ccc[n+](C)c3)cc2c1 [Compound 924],IC50,[2],25 µM
same,inhibition at 100 µM,[2],97.7%
Fc1cc(F)c2[nH]c(CCCCCCCC[n+]3ccc4ccccc4c3)cc2c1 [Compound 521],% Inhibition,[2]; [3],29.59%
CN(C)c1ccc(CC(=O)OCCCCCCCCOc2cccc(N3CCOCC3)c2)cc1 [Compound 1045],% Inhibition,[2]; [4],14%
C[n+]1cccc(C(=O)OCCCCCCCCOc2cccc(OC(=O)c3ccccc3)c2)c1 [compound 1059],% Inhibition,[2]; [4],85%
C[n+]1cccc(C(=O)OCCCCCCCCOc2ccc([N+](=O)[O-])cc2)c1 [compound 1053],% Inhibition,[2]; [4],72%
CC(C)c1ccc2[nH]c(CCCCOC(=O)c3ccc([N+](C)(C)C)cc3)cc2c1 [Compound 889],IC50,[2],75 µM
same,inhibition at 100 µM,[2],93.6%
COc1ccc2c(ccn2CCCCOC(=O)c2ccc[n+](C)c2)c1 [Compound 760],% Inhibition,[2]; [3],2.28%
C[N+](C)(C)c1ccc(CC(=O)OCCCCCCCCOc2ccccc2C=CC(=O)c2ccccc2)cc1 [Compound 1086],IC50,[2],27.5 µM
same,inhibition at 200 µM,[2],81%
COC(=O)c1cc2cc(OCc3ccccc3)ccc2n1CCCCCCCOC(=O)Cc1ccc([N+](C)(C)C)cc1 [compound 1105],% Inhibition,[2]; [4],167%
CC(C)c1ccc2[nH]c(CCCCCCCCOC(=O)c3cc[n+](C)cc3)cc2c1 [Compound 906],IC50,[2],25 µM
O=C(OCCCCCCCCOc1ccccc1N1CCCC1)c1cccnc1 [Compound 1019],% Inhibition,[2]; [4],3%
FC(F)(F)c1ccc2[nH]c(CCCCCCCC[n+]3cccc4ccccc43)cc2c1 [Compound 473],% Inhibition,[2]; [3],15.06%
COC(=O)c1cc2ccccc2n1CCCCCCOC(=O)Cc1ccc([N+](C)(C)C)cc1 [Compound 983],IC50,[2],25 µM
same,inhibition at 50 µM,[2],92.5%
COC(=O)c1ccc2[nH]c(CCCC[n+]3cccc4ccccc43)cc2c1 [Compound 487],% Inhibition,[2]; compound at 0.1 mM (Table 314),9.88%
CC(=O)C=Cc1ccc(OCCCCCCCCOC(=O)c2ccc[n+](C)c2)cc1 [compound 1061],% Inhibition,[2]; [4],61%
CC(=O)c1ccc2[nH]c(CCCCCCCOC(=O)c3ccc([N+](C)(C)C)cc3)cc2c1 [Compound 893],% Inhibition,[2]; compound at 0.25 mM,13.8%
CN(C)c1ccc(CC(=O)OCCCCCCCCOc2cccc([N+](=O)[O-])c2)cc1 [Compound 1036],% Inhibition,[2]; [4],6%
c1ccc(-c2ccc3[nH]c(CCCCCC[n+]4cccc5ccccc54)cc3c2)cc1 [Compound 435],% Inhibition,[2]; [3],17.24%
